Measurements reported in publication PMC6019134, “1,2,6-Thiadiazinones as Novel Narrow Spectrum Calcium/Calmodulin-Dependent Protein Kinase Kinase 2 (CaMKK2) Inhibitors” (Molecules : A Journal of Synthetic Chemistry and Natural …, 2018).
Entries after “also recorded” stand apart in the source; their conditions may differ.

Tests used:
AAK1 = target: T1, AAK1 (Homo sapiens, UniProt Q2M2I8); test: DSF thermal shift, kinase panel; type: binding; settings: 10 μM compound
T1 construct: purchased in-house (home-made panel, SGC-style construct names)
Procedure: (§1) The corresponding dianilino-TDZs (1–5) were tested on a panel of 46 protein kinases representing the major kinome branches at a concentration of 10 μM using a Differential Scanning Fluorimetry (DSF). Only analogues 1–3 induced a significant (>2 °C) thermal shift when incubated with a subset of the proteins (Table 1).
(§2) Kinase selectivity assay—A home-made kinase panel was generated for the following enzymes: AAK1, BMP2K, BMX, BRAF, CAMK1D, CAMK1G, CAMKK1, CAMKK2B, CDC42BPA, CDK2, CDKL1, CHEK2, CLK1, CSNK1G1, CSNK1G3, CSNK2A1, DYRK1A, DYRK2A, EPHA2, GAK, GSG2, MAPK1, MAP2K7, MAPK14B, MAPK3, PHKG2, PIM1, PLK1, PKMYT1, PRPF4B, RPS6KA1A, RPS6KA5A, RPS6KA6A, SLK, SRPK1, SRPK2, STK3, STK6, STK10, STK17A, STK24, STK38L, TRIB2, TTK, VRK1 and VRK2. Proteins were produced in E. coli, purified in a Ni-chelate column, followed by overnight digestion using TEV protease (made in house with an N-terminal 6xHis tag) and dialysis to remove imidazole. To clear samples of uncleaved proteins and the TEV protease, samples were loaded on new Ni-chelate columns. The flow through was collected, concentrated and loaded to a HiLoad Superdex 200 16/600 column (GE Healthcare, Chicago, IL, USA) for final polishing and buffer exchange.
(§3) Starting from 100 µM protein stocks, our kinase panel enzymes were diluted to 1 µM in buffer 100 mM K2HPO4 pH 7.5 containing 150 mM NaCl, 10% glycerol and 5X dye (Applied Biosystems catalogue 4461806). The protein/dye mixture was transferred to a 384-well PCR microplate having 20 µL per well. Compounds in DMSO at 10 mM concentration were added in 20 nL volume, using a liquid handling device setup with a pin head, to make 10 µM compound concentration in the assay plate.
(§4) Protein thermal shift data was measured in a qPCR instrument (Applied Biosystems QuantStudio 6) programmed to equilibrate the plate at 25 °C for 5 min followed by ramping the temperature to 95 °C at a rate of 0.05 °C/s. Data was processed using Protein Thermal shift software (Applied Biosystems) by fitting experimental curves to a Boltzmann function to calculate differential thermal shifts (dTm) referenced to protein/dye in 0.2% DMSO.

BMXA = target: T2, BMXA (Homo sapiens, UniProt P51813); test: DSF thermal shift, kinase panel; type: binding; settings: 10 μM compound
T2 construct: purchased in-house (home-made panel, SGC-style construct names)
T2 sequence (P51813 1-675): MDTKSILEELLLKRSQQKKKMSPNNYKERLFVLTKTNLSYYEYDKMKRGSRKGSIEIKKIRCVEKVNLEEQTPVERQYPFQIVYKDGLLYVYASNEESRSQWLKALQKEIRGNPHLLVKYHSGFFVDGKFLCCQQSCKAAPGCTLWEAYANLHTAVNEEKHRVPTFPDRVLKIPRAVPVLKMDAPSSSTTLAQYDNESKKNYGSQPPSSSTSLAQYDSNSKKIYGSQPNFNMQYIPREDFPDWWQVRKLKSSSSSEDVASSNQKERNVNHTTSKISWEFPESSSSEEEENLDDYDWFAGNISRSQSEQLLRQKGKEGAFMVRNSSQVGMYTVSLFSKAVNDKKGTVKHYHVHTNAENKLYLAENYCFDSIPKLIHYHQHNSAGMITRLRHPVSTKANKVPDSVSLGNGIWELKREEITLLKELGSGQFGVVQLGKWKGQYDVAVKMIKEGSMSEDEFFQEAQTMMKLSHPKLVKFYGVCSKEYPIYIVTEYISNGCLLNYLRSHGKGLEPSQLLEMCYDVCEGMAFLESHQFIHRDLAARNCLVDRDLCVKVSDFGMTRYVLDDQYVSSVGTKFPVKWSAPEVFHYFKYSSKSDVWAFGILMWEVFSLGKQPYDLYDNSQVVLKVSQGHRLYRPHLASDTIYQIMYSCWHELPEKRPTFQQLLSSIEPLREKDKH
Procedure: as §1, §2, §3, §4

CAMKK2B = target: T3, CAMKK2B (Homo sapiens, UniProt Q96RR4); test: DSF thermal shift, kinase panel; type: binding; settings: 10 μM compound
T3 construct: purchased in-house (home-made panel, SGC-style construct names)
Procedure: as §1, §2, §3, §4

CDC42BPA = target: T4, CDC42BPA (Homo sapiens, UniProt Q5VT25); test: DSF thermal shift, kinase panel; type: binding; settings: 10 μM compound
T4 construct: purchased in-house (home-made panel, SGC-style construct names)
Procedure: as §1, §2, §3, §4

CDK2 = target: T5, CDK2 (Homo sapiens, UniProt P24941); test: DSF thermal shift, kinase panel; type: binding; settings: 10 μM compound
T5 construct: purchased in-house (home-made panel, SGC-style construct names)
Procedure: as §1, §2, §3, §4

CLK1 = target: T6, CLK1 (Homo sapiens, UniProt P49759); test: DSF thermal shift, kinase panel; type: binding; settings: 10 μM compound
T6 construct: purchased in-house (home-made panel, SGC-style construct names)
Procedure: as §1, §2, §3, §4

CSNK1G1 = target: T7, CSNK1G1 (Homo sapiens, UniProt Q9HCP0); test: DSF thermal shift, kinase panel; type: binding; settings: 10 μM compound
T7 construct: purchased in-house (home-made panel, SGC-style construct names)
Procedure: as §1, §2, §3, §4

MAPK1A = target: T8, MAPK1A (Homo sapiens, UniProt P28482); test: DSF thermal shift, kinase panel; type: binding; settings: 10 μM compound
T8 construct: purchased in-house (home-made panel, SGC-style construct names)
Procedure: as §1, §2, §3, §4

MAPK3A = target: T9, MAPK3A (Homo sapiens, UniProt P27361); test: DSF thermal shift, kinase panel; type: binding; settings: 10 μM compound
T9 construct: purchased in-house (home-made panel, SGC-style construct names)
Procedure: as §1, §2, §3, §4

PIM1A = target: T10, PIM1A (Homo sapiens, UniProt P11309); test: DSF thermal shift, kinase panel; type: binding; settings: 10 μM compound
T10 construct: purchased in-house (home-made panel, SGC-style construct names)
Procedure: as §1, §2, §3, §4

PRPF4BA = target: T11, PRPF4BA (Homo sapiens, UniProt Q13523); test: DSF thermal shift, kinase panel; type: binding; settings: 10 μM compound
T11 construct: purchased in-house (home-made panel, SGC-style construct names)
Procedure: as §1, §2, §3, §4

RPS6KA1A = target: T12, RPS6KA1A (Homo sapiens, UniProt Q15418); test: DSF thermal shift, kinase panel; type: binding; settings: 10 μM compound
T12 construct: purchased in-house (home-made panel, SGC-style construct names)
Procedure: as §1, §2, §3, §4

RPS6KA5A = target: T13, RPS6KA5A (Homo sapiens, UniProt O75582); test: DSF thermal shift, kinase panel; type: binding; settings: 10 μM compound
T13 construct: purchased in-house (home-made panel, SGC-style construct names)
Procedure: as §1, §2, §3, §4

RPS6KA6A = target: T14, RPS6KA6A (Homo sapiens, UniProt Q9UK32); test: DSF thermal shift, kinase panel; type: binding; settings: 10 μM compound
T14 construct: purchased in-house (home-made panel, SGC-style construct names)
Procedure: as §1, §2, §3, §4

SLKA = target: T15, SLKA (Homo sapiens, UniProt Q9H2G2); test: DSF thermal shift, kinase panel; type: binding; settings: 10 μM compound
T15 construct: purchased in-house (home-made panel, SGC-style construct names)
Procedure: as §1, §2, §3, §4

SRPK1A = target: T16, SRPK1A (Homo sapiens, UniProt Q96SB4); test: DSF thermal shift, kinase panel; type: binding; settings: 10 μM compound
T16 construct: purchased in-house (home-made panel, SGC-style construct names)
Procedure: as §1, §2, §3, §4

[1] = tested on: panel of 46 protein kinases; test: DSF kinome selectivity panel, hits over 2 °C; type: binding; settings: 10 μM compound, average of 4 experiments; for Kinases Hit DSF > 2 °C: names of the kinases hit, 46 kinases; for Number of Kinases Hit DSF > 2 °C: of 46 kinases
Procedure: as §1, §2, §3, §4

STK24A = target: T17, STK24A (Homo sapiens, UniProt Q9Y6E0); test: DSF thermal shift, kinase panel; type: binding; settings: 10 μM compound
T17 construct: TEV-cleavable (cleaved yes); made in house; host or cells: E. coli
Procedure: as §1, §2, §3, §4

T12 sequence (Q15418 whole entry): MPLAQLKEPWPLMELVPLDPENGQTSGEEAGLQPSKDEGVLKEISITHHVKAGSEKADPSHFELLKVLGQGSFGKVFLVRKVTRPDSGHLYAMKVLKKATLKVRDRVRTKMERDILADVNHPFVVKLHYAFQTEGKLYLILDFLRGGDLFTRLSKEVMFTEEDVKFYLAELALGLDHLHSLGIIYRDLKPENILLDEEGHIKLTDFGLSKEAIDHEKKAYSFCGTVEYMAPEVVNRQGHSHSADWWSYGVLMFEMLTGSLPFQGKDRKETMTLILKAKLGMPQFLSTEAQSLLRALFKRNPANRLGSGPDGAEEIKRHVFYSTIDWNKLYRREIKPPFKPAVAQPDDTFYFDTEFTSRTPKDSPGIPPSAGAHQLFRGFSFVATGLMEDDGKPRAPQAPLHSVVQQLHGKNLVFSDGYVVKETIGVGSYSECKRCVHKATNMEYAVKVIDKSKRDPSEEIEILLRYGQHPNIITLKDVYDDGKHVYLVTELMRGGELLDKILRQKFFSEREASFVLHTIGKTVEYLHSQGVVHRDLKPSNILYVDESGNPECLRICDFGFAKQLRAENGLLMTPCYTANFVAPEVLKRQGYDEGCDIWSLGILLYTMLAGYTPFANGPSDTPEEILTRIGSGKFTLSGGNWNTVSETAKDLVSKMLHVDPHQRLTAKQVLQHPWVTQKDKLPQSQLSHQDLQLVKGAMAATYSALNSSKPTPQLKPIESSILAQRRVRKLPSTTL
T16 sequence (Q96SB4 whole entry): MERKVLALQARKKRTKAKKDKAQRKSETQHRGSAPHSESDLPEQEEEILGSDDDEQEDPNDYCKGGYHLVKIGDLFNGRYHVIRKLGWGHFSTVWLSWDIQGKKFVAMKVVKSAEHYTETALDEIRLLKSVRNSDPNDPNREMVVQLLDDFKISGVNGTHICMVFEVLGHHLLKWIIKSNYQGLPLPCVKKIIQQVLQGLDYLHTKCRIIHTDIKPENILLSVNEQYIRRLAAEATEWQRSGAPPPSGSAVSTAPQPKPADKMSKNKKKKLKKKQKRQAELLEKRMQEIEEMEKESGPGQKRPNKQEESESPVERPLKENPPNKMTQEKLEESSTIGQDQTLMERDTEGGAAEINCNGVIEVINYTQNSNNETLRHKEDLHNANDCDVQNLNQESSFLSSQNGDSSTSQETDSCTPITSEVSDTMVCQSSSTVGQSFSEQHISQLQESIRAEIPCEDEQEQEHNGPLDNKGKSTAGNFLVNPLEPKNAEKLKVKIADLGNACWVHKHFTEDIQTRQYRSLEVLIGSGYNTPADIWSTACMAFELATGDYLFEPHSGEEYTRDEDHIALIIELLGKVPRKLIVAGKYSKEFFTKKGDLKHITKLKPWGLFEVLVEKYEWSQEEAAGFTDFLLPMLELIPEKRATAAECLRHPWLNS
T10 sequence (P11309 whole entry): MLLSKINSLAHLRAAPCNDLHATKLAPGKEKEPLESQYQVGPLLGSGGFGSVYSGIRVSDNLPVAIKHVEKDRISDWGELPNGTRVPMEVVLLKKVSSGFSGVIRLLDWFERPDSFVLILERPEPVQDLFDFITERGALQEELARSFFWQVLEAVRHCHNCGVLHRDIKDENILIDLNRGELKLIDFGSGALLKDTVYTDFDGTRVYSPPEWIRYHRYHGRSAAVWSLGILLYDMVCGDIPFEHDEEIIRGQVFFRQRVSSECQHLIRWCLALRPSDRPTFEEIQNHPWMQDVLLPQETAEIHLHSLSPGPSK
T15 sequence (Q9H2G2 whole entry): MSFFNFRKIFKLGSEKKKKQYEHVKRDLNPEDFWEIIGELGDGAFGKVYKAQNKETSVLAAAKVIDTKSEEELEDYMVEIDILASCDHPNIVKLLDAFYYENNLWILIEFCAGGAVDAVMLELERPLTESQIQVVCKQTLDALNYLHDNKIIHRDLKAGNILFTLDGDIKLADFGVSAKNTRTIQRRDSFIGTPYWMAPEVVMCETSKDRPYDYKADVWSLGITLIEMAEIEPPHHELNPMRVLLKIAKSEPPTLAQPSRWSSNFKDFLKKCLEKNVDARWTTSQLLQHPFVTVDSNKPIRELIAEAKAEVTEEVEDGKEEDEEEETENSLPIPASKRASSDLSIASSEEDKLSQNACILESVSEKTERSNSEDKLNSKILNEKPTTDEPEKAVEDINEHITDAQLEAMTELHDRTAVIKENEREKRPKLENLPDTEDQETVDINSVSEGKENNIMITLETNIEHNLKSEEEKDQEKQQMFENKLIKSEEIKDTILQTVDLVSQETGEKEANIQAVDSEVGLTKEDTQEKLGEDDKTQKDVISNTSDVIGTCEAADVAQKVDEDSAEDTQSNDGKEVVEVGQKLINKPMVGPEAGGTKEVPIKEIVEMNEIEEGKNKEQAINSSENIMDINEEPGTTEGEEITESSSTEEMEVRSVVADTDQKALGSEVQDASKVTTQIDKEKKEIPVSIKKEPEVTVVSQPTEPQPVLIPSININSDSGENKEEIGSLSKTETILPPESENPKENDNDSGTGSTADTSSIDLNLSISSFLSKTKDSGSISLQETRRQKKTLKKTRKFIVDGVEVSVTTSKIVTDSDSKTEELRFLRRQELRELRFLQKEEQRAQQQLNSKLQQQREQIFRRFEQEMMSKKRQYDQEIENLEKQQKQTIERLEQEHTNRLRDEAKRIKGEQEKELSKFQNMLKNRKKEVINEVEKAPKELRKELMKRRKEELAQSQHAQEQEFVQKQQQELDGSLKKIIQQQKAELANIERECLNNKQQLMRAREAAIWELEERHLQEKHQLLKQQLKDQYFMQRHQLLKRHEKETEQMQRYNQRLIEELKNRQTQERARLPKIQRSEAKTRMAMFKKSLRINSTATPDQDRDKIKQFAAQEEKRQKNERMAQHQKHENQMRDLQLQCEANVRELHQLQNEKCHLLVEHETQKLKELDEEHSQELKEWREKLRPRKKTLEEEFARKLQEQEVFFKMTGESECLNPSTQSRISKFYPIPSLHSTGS
T6 sequence (P49759 whole entry): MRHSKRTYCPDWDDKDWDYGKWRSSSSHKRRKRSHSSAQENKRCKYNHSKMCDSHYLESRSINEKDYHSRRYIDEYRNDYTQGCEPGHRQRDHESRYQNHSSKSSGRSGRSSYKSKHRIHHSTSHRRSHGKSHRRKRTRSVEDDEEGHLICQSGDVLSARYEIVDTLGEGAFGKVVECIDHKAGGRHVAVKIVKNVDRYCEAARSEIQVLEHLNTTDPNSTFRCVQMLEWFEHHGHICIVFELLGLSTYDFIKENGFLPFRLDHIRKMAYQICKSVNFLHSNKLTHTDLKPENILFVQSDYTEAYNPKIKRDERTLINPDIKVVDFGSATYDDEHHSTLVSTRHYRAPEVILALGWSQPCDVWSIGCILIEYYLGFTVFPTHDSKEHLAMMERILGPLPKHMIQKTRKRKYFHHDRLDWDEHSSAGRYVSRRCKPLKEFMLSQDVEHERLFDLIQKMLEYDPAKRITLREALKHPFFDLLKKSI
T14 sequence (Q9UK32 whole entry): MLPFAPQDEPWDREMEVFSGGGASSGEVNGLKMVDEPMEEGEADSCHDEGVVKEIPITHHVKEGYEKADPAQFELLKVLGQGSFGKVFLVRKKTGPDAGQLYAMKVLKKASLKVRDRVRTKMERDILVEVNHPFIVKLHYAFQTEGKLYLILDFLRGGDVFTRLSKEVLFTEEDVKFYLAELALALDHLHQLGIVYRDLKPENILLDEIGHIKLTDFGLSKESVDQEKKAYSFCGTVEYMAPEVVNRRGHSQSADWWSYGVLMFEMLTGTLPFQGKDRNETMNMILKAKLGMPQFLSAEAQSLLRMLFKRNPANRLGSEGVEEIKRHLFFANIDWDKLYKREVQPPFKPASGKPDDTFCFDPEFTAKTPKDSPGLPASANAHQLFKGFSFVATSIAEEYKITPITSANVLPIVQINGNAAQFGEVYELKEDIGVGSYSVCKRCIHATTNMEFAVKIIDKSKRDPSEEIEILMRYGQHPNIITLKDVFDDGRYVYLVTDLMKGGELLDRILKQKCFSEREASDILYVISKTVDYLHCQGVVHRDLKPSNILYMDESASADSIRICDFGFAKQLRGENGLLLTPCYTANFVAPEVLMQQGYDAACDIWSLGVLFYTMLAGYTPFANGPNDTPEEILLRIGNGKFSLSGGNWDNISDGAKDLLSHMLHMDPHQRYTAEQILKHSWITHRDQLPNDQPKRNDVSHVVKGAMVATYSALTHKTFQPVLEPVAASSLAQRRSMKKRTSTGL
T9 sequence (P27361 whole entry): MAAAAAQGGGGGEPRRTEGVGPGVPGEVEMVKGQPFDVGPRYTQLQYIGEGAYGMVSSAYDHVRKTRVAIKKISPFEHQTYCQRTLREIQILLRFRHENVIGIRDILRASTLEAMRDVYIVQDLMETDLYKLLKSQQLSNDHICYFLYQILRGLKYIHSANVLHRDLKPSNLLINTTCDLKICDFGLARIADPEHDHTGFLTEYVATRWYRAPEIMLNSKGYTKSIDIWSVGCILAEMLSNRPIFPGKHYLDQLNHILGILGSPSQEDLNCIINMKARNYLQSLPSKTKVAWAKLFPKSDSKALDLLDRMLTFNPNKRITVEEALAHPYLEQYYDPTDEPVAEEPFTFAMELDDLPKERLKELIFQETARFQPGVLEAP
T17 sequence (Q9Y6E0 whole entry): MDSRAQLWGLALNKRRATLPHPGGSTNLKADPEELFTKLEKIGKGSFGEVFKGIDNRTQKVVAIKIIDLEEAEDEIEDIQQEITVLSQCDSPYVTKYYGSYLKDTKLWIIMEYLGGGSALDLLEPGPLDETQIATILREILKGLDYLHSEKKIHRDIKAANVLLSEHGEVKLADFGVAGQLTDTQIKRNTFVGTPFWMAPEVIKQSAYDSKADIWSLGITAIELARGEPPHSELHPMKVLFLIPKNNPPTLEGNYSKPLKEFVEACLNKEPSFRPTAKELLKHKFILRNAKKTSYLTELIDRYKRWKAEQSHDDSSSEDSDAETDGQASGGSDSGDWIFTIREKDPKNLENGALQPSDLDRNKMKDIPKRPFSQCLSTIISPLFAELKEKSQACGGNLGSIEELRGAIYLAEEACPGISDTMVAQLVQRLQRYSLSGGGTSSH

Row | SMILES | ΔTm at 10 µM (AAK1) [°C] | ΔTm at 10 µM (BMXA) [°C] | ΔTm at 10 µM (CAMKK2B) [°C] | ΔTm at 10 µM (CDC42BPA) [°C] | ΔTm at 10 µM (CDK2) [°C] | ΔTm at 10 µM (CLK1) [°C] | ΔTm at 10 µM (CSNK1G1) [°C] | ΔTm at 10 µM (MAPK1A) [°C] | ΔTm at 10 µM (MAPK3A) [°C] | ΔTm at 10 µM (PIM1A) [°C] | ΔTm at 10 µM (PRPF4BA) [°C] | ΔTm at 10 µM (RPS6KA1A) [°C] | ΔTm at 10 µM (RPS6KA5A) [°C] | ΔTm at 10 µM (RPS6KA6A) [°C] | ΔTm at 10 µM (SLKA) [°C] | ΔTm at 10 µM (SRPK1A) [°C] | Kinases Hit DSF > 2 °C [1] | Number of Kinases Hit DSF > 2 °C [1] | melting point [°C] | ΔTm at 10 µM (STK24A) [°C]
1 | Cc1ccc(Nc2nsnc(Nc3ccc(C(N)=O)cc3)c2=O)cc1O [Compound 2, 4-({5-[(3-Hydroxy-4-methylphenyl)amino]-4-oxo-4H-1,2,6-thiadiazin-3-yl}amino)benzamide] | 1.5 | -0.1 | 2.9 | 4.8 | 2.7 | 0.9 | -1 | 1.4 | 1.2 | 3.5 | 0.1 | 1.3 | 1.7 | 2.6 | -0.1 | 1.8 | CAMK1D/G/K1/K2B, CDC42BPA, CDK2; also recorded: CHEK2, DYRK2, MAP2K7, PHKG2; also recorded: PIM1, PKMYT1, RPSKA6, STK3, STK17, TTK | 16 | > 300 | 
2 | CNC(=O)c1ccccc1Nc1nsnc(Nc2ccc(N3CCOCC3)cc2)c1=O [Compound 5, N-Methyl-2-({5-[(4-morpholinophenyl)amino]-4-oxo-4H-1,2,6-thiadiazin-3-yl}amino)benzamide] | -0.4 | 0 | -0.5 | -0.6 | -0.1 | 1 | 0 | -0.3 | 0.1 | -0.2 | 0.1 | -0.4 | -1.1 | -0.6 | -0.7 | 0 |  | 0 | 285 to 287 | -1.1
3 | Cc1ccc(Nc2nsnc(Nc3ccc4c(c3)CS(=O)(=O)C4)c2=O)cc1O [Compound 3, 3-[(2,2-Dioxido-1,3-dihydrobenzo[c]thiophen-5-yl)amino]-5-[(3-hydroxy-4-methylphenyl)amino]-4H-1,2,6-thiadiazin-4-one] | 0.6 | 0 | 2.3 | 2.3 | 1.8 | 2.1 | -0.7 | 0.1 | 0.4 | 4.1 | 0.6 | -0.4 | -0.3 | 0.9 | -0.2 | 0 | STK10, TRIB2, TTK; also recorded: CAMK1G/2B, CDC42BPA,; also recorded: CLK1, MAP2K7, PIM1, | 9 | > 300 | -0.3
4 | Cc1ccc(Nc2nsnc(Nc3cccc(C(N)=O)c3)c2=O)cc1O [Compound 1, 3-({5-[(3-Hydroxy-4-methylphenyl)amino]-4-oxo-4H-1,2,6-thiadiazin-3-yl}amino)benzamide] | 0.6 | 0.1 | 0.5 | 0.3 | 0.2 | 0.5 | -0.6 | -0.2 | 0.1 | 1 | 0.7 | -0.6 | -0.9 | 0.5 | -0.6 | 0 | TRIB2 | 1 |  | -0.1
5 | CNC(=O)c1ccccc1Nc1nsnc(Nc2cccc(CS(C)(=O)=O)c2)c1=O [Compound 4, N-Methyl-2-([5-({3-[(methylsulfonyl)methyl]phenyl}amino)-4-oxo-4H-1,2,6-thiadiazin-3-yl]-amino}-benzamide] | -0.4 | 0 | -0.4 | -0.8 | 0.2 | 0 | 0.3 | -0.3 | 0.1 | -0.7 | 0.1 | -0.4 | -1.2 | -0.3 | -0.8 | 0 |  | 0 | > 300 | 0
